From patent US9555061B2, “Synthesis and analysis of compounds capable of inducing differentiation of human mesenchymal stems cells into hepatocytes” (National University Corporation Torrori University, priority 2011, dated 2017)

Tests used:
[1] = test system: Wnt/β-catenin signaling pathway; test: Ability of inhibiting Wnt/β-catenin pathway, luciferase assay (UE7T-13); type: cell-based, human; conditions: 8 days after the treatment; pTCF4-CMV-luciferase reporter
Excerpt: FIG. 3 is a schematic diagram illustrating how to establish a human mesenchymal stem cell stably expressing a β-catenin/TCF4/luciferase reporter gene. FIG. 3 illustrates how to construct pTCF4-CMVpro-GL4.20 plasmid by using a luciferase expression vector. The pTCF4-CMVpro-GL4.20 plasmid contains three TCF4 sequences […] upstream of a CMV promoter to express luciferase. In addition, pCMVpro-GL4.20 plasmid was constructed as a control. The resulting plasmids were each linearized, introduced into UE7T-13 by electroporation, and selected using puromycin (0.25 μg/ml) supplemented in a medium. Puromycin-resistant cells were cloned and used for a luciferase assay.
The cell line having a vector stably expressing luciferase was seeded on a 24-well plate, and was cultured at 37° C. At the next day, the medium was changed to a medium containing IC-2, etc., and the cell line was further cultured at 37° C. After that, at days 1, 4, and 8, a luciferase assay system (Promega) was used and the luciferase activity was read with a fluorescence plate reader (ARVO) at a wavelength of 556 nm.

UE7T-13 cells [2] = test: Proliferation potential (toxicity), MTT assay (UE7T-13); conditions: for concentration with very low cell toxicity toward UE7T-13 cells: days 2, 4, 8 of treatment
UE7T-13 cells [3] = test: Periodic acid-Schiff (PAS) staining (UE7T-13); type: cell-based, human
Experimental: (3-4) Periodic Acid-Schiff (PAS) Staining (UE7T-13) A cover glass (22×22 mm, […]) was sterilized with 70% EtOH and placed in a 6-well plate. Next, cells were seeded on the cover glass and cultured in a medium containing IC-2, etc. At 8, 16, and 24 days after the initiation of the culture, the cells were washed twice with PBS. Then, the cells were treated with 4% paraformaldehyde/PBS for 20 min and fixed onto the cover glass. As a negative control, 10 mg/ml of α-amylase (10 mg/ml; in 0.1 M phosphate buffer solution at pH 6.8) was added, and the cells were incubated therewith at 37° C. for 1 h to digest their glycogen. Subsequently, 1% aqueous periodic acid was used for oxidation treatment for 10 min. After that, the cells were treated with a Schiff reagent for 15 min to stain glycogen. Then, the cells were washed three times with aqueous sulfurous acid and were washed three times with distilled water. After their nuclei were stained with Mayer's hematoxylin, 50% glycerol diluted with PBS was used to mount the cover glass. Finally, the cells were observed under a light microscope. The cells which had been cultured with 0.1% DMSO were used as a control.

[4] = test system: clinical specimen-derived mesenchymal stem cells; test: RT-PCR of hepatocyte differentiation marker in clinical specimen-derived mesenchymal stem cells; type: cell-based, human; conditions: hexachlorophene 4 μM, HC-2 20 μM, PN-3-13 20 μM, IC-2 40 μM
Experimental: A fresh bone marrow aspirate was collected under informed consent from a patient (a person) with osteoarthritis who underwent replacement arthroplasty at the Department of Orthopedic Surgery, Tottori University Hospital. This aspirate was subjected to density gradient centrifugation using ficoll (Amersham Biosciences) to separate bone marrow mononuclear cells (FIG. 31). These bone marrow mononuclear cells were suspended in 1 ml of Hanks' balanced salt solution (HBSS, Gibco, Life Technologies Corp.) supplemented with a 100-fold diluted APC-labeled anti-CD90 antibody, a 407-fold diluted PE-labeled anti-CD271 antibody, and 2% fetal bovine serum (FBS, Defined, Thermo Fisher Scientific Inc.), and were stained on ice for 30 min. A flow cytometer (MoFlo XDP, Beckman Coulter Inc.) was used to selectively separate mesenchymal stem cells. The resulting cells were cultured in Dulbecco's Modified Eagle's Medium (Low Glucose, Gibco, Life Technologies Corp.) containing 20% FBS, 100 U/ml penicillin, […] streptomycin (Nacalai Tesque), and 20 ng/ml basic fibroblast growth factor (TRANS GENIC INC., Ltd.) on a 35-mm dish under conditions at 37° C. and 5% CO2. The medium was changed every 4 days. After colonies were formed, the cells were detached using a 0.025% trypsin/1 mM EDTA solution (Nacalai Tesque), split on a 100-mm dish, and cultured under conditions at 37° C. and 5% CO2. Then, the cells which were kept 70 to 80% confluent were detached using trypsin treatment. These cells in one dish were divided into four dishes for passage.
Cells were seeded on a 6-well plate at a cell density of 1.8×10^4 cells/cm^2. This day was designated as day 0. At day 1 corresponding to the next day, the medium was changed to a medium containing any one of hexachlorophene (at a final concentration of 4 μM), HC-2 (at a final concentration of 20 μM), PN-3-13 (at a final concentration of 20 μM), IC-2 (at a final concentration of 40 μM), and 0.1% DMSO. […]

[5] = test system: CD90+CD271+ bone marrow-derived mesenchymal stem cells; test: Urea assay in CD90+CD271+ bone marrow-derived mesenchymal stem cells; type: cell-based, human; conditions: hexachlorophene 4 μM, PN-3-13 20 μM, IC-2 40 μM; day 8 plus 96 h ammonium chloride
Experimental: A urea assay was performed according to the following protocol. CD90^+CD271^+ bone marrow-derived mesenchymal stem cells were seeded on a 24-well plate at a cell density of 1.8×10^4 cells/cm^2. This day was designated as day 0. At day 1 corresponding to the next day, each medium was changed to a medium containing hexachlorophene (at a final concentration of 4 μM), HC-2 (at a final concentration of 20 μM), PN-3-13 (at a final concentration of 20 μM), IC-2 (at a final concentration of 40 μM), or 0.1% DMSO. At day 4, the medium was changed in a manner similar to that at day 1, and the cells were cultured until day 8. At day 8, the medium was removed, and replaced with a medium containing ammonium chloride (Nacalai Tesque) at a final concentration of 5 mM. The cells were further cultured for 96 h. At 96 h after the addition of ammonium chloride, levels of urea in the medium were determined using a QuantiChrom Urea Assay Kit (BioAssay Systems) according to the attached protocol by reading the absorbance at a wavelength of 520 nm with a microplate reader. The levels of urea were calculated based on a standard sample according to the attached calculation method. As a negative control for the urea assay, used were CD90^+CD271^+ bone marrow-derived mesenchymal stem cells that were seeded one day before the day of the immunostaining and were not subjected to the differentiation induction.

UE7T-13 cells [6] = test: RT-PCR of genes encoding liver-specific secretory proteins and cytokines (UE7T-13); type: cell-based, human; conditions: hexachlorophene 0.8 μM or IC-2 15 μM; days 8, 16, 24
Experimental: Bone marrow-derived mesenchymal stem cells (UE7T-13 cells) were treated with a compound, hexachlorophene (H4625-25G; Sigma-Aldrich, Inc.) or IC-2. At that time, gene expression of each of liver-specific secretory proteins and cytokines was evaluated. […] This time point was set to day 0.
At the next day corresponding to day 1, the medium was changed to DMEM containing hexachlorophene at a final concentration of 0.8 μM or IC-2 at a final concentration of 15 μM. […] After that, the medium was replaced twice during 8 days, and the cells were subcultured every 8 days. Then, the similar operation was carried out until day 24. At days 8, 16, and 24 after the initiation of the induction, TRIzol (Invitrogen) was used to extract total RNA according to the attached instruction. After the extraction, deoxyribonuclease (Nippon Gene) was added, and the mixture was incubated at 37° C. for 30 min to remove DNA. In a reverse transcription reaction, SuperScriptII Reverse Transcriptase (Invitrogen) and Oligo(dT)15 primer were added to 1 μg of RNA to convert it into cDNA. In a RT-PCR method, the cDNA was diluted by 5 times. Next, 1 μl of the cDNA was used as a template. Then, rTaq DNA polymerase (TOYOBO) was used to amplify the cDNA. MQ water was used as a negative control. cDNA from Huh-7 or UE7T-13 cells was used as a positive control. […]

Cc1ccc(/C=N/NC(=O)c2cccc(Oc3ccccc3)c2)o1 [PN-1-2, N′-[(E)-(5-methyl-2-fulyl)methylidene]-3-phenoxybenzohydrazide]
concentration that significantly inhibited the Wnt/β-catenin signaling pathway [1]: ≥ 3 µM
concentration at which proliferation potential did not remain (UE7T-13 cells [2]; day 8): 10 µM
concentration with very low cell toxicity toward UE7T-13 cells (UE7T-13 cells [2]): ≤ 40 µM

Cc1ccc(C=NNC(=O)c2ccccc2Oc2ccccc2)o1 [PNU-74654, N-[(5-methyl-2-furyl)methylideneamino]-2-phenoxy-benzamide]
intracellular glycogen accumulation compared with negative control (0.1% DMSO) (UE7T-13 cells [3]): did not increase

Oc1c(Cl)cc(Cl)c(Cl)c1Cc1c(O)c(Cl)cc(Cl)c1Cl [hexachlorophene, reference compound]
expression of albumin [4]: induced
cellular urea synthesis compared with negative control (0.1% DMSO) [5]: apparent increase
expression of a plurality of the liver-specific secretory proteins and cytokines (UE7T-13 cells [6]): increased levels of expression

O=C(N/N=C/c1cccc2ccccc12)c1ccccc1Oc1ccccc1 [PN-3-4, N′-[(E)-1-naphtylmethylidene]-2-phenoxybenzohydrazide]
concentration that significantly inhibited the Wnt/β-catenin signaling pathway [1]: ≥ 20 µM
concentration with very low cell toxicity toward UE7T-13 cells (UE7T-13 cells [2]): ≤ 30 µM
